Measurements published in patent publication US20160002247A1, “8-SUBSTITUTED IMIDAZOPYRIMIDINONE DERIVATIVE HAVING AUTOTAXIN INHIBITORY ACTIVITY” (THE UNIVERSITY OF TOKYO, priority 2013, published 2016).

What follows are compounds tested against T1, Human autotaxin enzyme (Homo sapiens, UniProt Q13822) (assay: Evaluation of autotaxin inhibitor, Method C (Test Example 3): 18:0 Lyso PC, choline assay, Resorufin fluorescence). Conditions: Assay Method C (Test Example 3), human autotaxin, 18:0 Lyso PC substrate; read-out: Inhibitory Activity (autotaxin enzyme inhibitory activity, IC50 class).
T1 construct: purchased R&D System
Assay type: biochemical
Outline: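 Choline-coupled fluorescence readout (20 min, resorufin at 531/598 nm) followed a 2 h room-temperature reaction of human autotaxin with 18:0 Lyso PC substrate (added as 200 μM solution) in pH 7.5 Tris buffer containing MgCl2 and Triton X-100. Percent inhibition scaled to no-compound (0%) and no-enzyme (100%) wells and plotted versus concentration.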

| SMILES | IC50 [nM] |
| --- | --- |
| CCCCCn1c(-c2cccc(F)c2)cc(=O)n2cc(-c3ccc(Cl)cc3)nc12 [Compound 444] | 100 to 1000 |
| CCCCCn1c(-c2ccc(C(=O)NCCN3CCNC3=O)cc2)cc(=O)n2cc(-c3ccc(Cl)cc3)nc12 [Compound 516] | 10 to 100 |
| CC(C)(C)[C@H](NC(=O)[C@@H]1C[C@@H](O)CN1c1cc(=O)n2cc(-c3ccc(Cl)cc3)nc2n1Cc1ccccc1)C(=O)O [Compound 752] | < 10 |
| CCn1c(N2CCC[C@H]2C(=O)N[C@@H](C)C(=O)O)cc(=O)n2cc(-c3ccc(Cl)cc3)nc12 [Compound 760] | 10 to 100 |
| CCCCCn1c(N2CCC[C@H]2C(=O)N[C@@H](CO)C(=O)OC)cc(=O)n2cc(-c3ccc(Cl)cc3)nc12 [Compound 687] | 100 to 1000 |
| CCCCCn1c(-c2ccc(C(=O)NCC3CC3)cc2)cc(=O)n2cc(-c3ccc(Cl)cc3)nc12 [Compound 483] | 10 to 100 |
| CCCCCn1c(-c2ccc(C(=O)NCC(O)CO)cc2)cc(=O)n2cc(-c3ccc(Cl)cc3)nc12 (centres unmarked) [Compound 487] | < 10 |
| CCCCCn1c(-c2ccc(C(=O)NCCN3CCSCC3)cc2)cc(=O)n2cc(-c3ccc(Cl)cc3)nc12 [Compound 515] | 10 to 100 |
| CCCCCn1c(O[C@@H]2CCN(C(=O)OC(C)(C)C)C2)cc(=O)n2cc(-c3ccc(Cl)cc3)nc12 [Compound 550] | 100 to 1000 |
| CCCCCn1c(N(C)CC(=O)NCC(=O)O)cc(=O)n2cc(-c3ccc(Cl)cc3)nc12 [Compound 609] | 10 to 100 |
| CCCCCn1c(N2CCC[C@H]2C(=O)NCCCCN2CCN(C)CC2)cc(=O)n2cc(-c3ccc(Cl)cc3)nc12 [Compound 652] | 10 to 100 |
| CCCCCn1c(C2=CCN(C(C)=O)CC2)cc(=O)n2cc(-c3ccc(Cl)cc3)nc12 [Compound 546] | 10 to 100 |
| CCCCCn1c(N2CCC[C@H]2C(=O)N[C@@H](C)C(=O)O)cc(=O)n2cc(-c3ccc(Cl)cc3)nc12 [Compound 675] | < 10 |
| CCCCCn1c(N2CCC(c3ccccc3)C2)cc(=O)n2cc(-c3ccc(Cl)cc3)nc12 (centres unmarked) [Compound 327] | 100 to 1000 |
| CCCCCn1c(-c2ccc(OC)nc2)cc(=O)n2cc(-c3ccc(Cl)cc3)nc12 [Compound 456] | 10 to 100 |
| CCCCCn1c(-c2cnc(C(=O)OC)nc2)cc(=O)n2cc(-c3ccc(Cl)cc3)nc12 [Compound 532] | 10 to 100 |
| CCCCCn1c(-c2ccc(CCCO)cc2)cc(=O)n2cc(-c3ccc(Cl)cc3)nc12 [Compound 446] | 100 to 1000 |
| CCCCCn1c(NCC2(CO)COC2)cc(=O)n2cc(-c3ccc(Cl)cc3)nc12 [Compound 714] | 100 to 1000 |
| CCCCCn1c(O[C@H]2C[C@@H](NC(=O)OC(C)(C)C)C2)cc(=O)n2cc(-c3ccc(Cl)cc3)nc12 [Compound 551] | 100 to 1000 |
| CCCCCn1c(N2CCC[C@H]2C(=O)N(C)CCC#N)cc(=O)n2cc(-c3ccc(Cl)cc3)nc12 [Compound 336] | 10 to 100 |
| CCCCCn1c(N2CCC[C@H]2CO)cc(=O)n2cc(-c3ccc(Cl)cc3)nc12 [Compound 304] | 100 to 1000 |
| CCCCCn1c(N2CCNC(C(=O)O)C2)cc(=O)n2cc(-c3ccc(Cl)cc3)nc12 (centres unmarked) [Compound 658] | 10 to 100 |
| CCCCCn1c(N2CCC[C@H]2C(=O)N[C@@H](C)C(=O)OC)cc(=O)n2cc(-c3ccc(Cl)cc3)nc12 [Compound 690] | 10 to 100 |
| CCCCCn1c(N2CCC[C@H]2C(=O)N2CCC[C@H](C(=O)O)C2)cc(=O)n2cc(-c3ccc(Cl)cc3)nc12 [Compound 677] | < 10 |
| CC(C)(C)[C@H](NC(=O)[C@@H]1CCCN1c1cc(=O)n2cc(-c3ccc(Cl)cc3)nc2n1Cc1ccccc1)C(=O)O [Compound 746] | < 10 |
| CCCCCn1c(N2CCC3CN(C(=O)OC(C)(C)C)CC32)cc(=O)n2cc(-c3ccc(Cl)cc3)nc12 (centres unmarked) [Compound 312] | 10 to 100 |
| CCCCCn1c(-c2ccc(C(=O)OC)cc2)cc(=O)n2cc(-c3ccc(Cl)cc3)nc12 [Compound 529] | 100 to 1000 |
| CCCCCn1c(-c2ccc(C(=O)NC3CCOC3=O)cc2)cc(=O)n2cc(-c3ccc(Cl)cc3)nc12 (centres unmarked) [Compound 502] | 10 to 100 |

| SMILES | IC50 [nM] |
| --- | --- |
| CCCCCn1c(-c2cnc(N)nc2)cc(=O)n2cc(-c3ccc(Cl)cc3)nc12 [Compound 459] | 10 to 100 |
| CCCCCn1c(N(C)C(C)=O)cc(=O)n2cc(-c3ccc(Cl)cc3)nc12 [Compound 361] | > 1000 |
| CCCCCn1c(N2CCN(C(=O)OC(C)(C)C)C[C@@H]2C(=O)NCCC(=O)O)cc(=O)n2cc(-c3ccc(Cl)cc3)nc12 [Compound 619] | 10 to 100 |
| CCCCCn1c(N2C[C@H](F)C[C@H]2C(=O)NC(C)(C)CC(=O)O)cc(=O)n2cc(-c3ccc(Cl)cc3)nc12 [Compound 583] | < 10 |
| CCCCCn1c(N2CCN(C(=O)OC(C)(C)C)C[C@H]2C(=O)NCCC(=O)O)cc(=O)n2cc(-c3ccc(Cl)cc3)nc12 [Compound 620] | < 10 |
| CCn1c(N2C[C@H](O)C[C@H]2C(=O)N[C@@H](Cc2ccccc2)C(=O)O)cc(=O)n2cc(-c3ccc(Cl)cc3)nc12 [Compound 761] | 100 to 1000 |
| CCCCCn1c(N2CCC(F)(F)CC2)cc(=O)n2cc(-c3ccc(Cl)cc3)nc12 [Compound 310] | 100 to 1000 |
| CCCCCn1c(N2CCC[C@H]2C(=O)N[C@@H](CCC)C(=O)O)cc(=O)n2cc(-c3ccc(Cl)cc3)nc12 [Compound 731] | < 10 |
| CCCCCn1c(N2CCC[C@H]2C(=O)NCCC(=O)OC)cc(=O)n2cc(-c3ccc(Cl)cc3)nc12 [Compound 340] | 10 to 100 |
| CCCCCn1c(N2C[C@H](O)C[C@H]2C(=O)NC(C)(C)CC(=O)O)cc(=O)n2cc(-c3ccc(Cl)cc3)nc12 [Compound 585] | < 10 |
| CCCCCn1c(N2CCCC[C@H]2C(=O)NCC(=O)O)cc(=O)n2cc(-c3ccc(Cl)cc3)nc12 [Compound 633] | 10 to 100 |
| CCCCCn1c(-c2ccc(NC(=O)N3CCOCC3)cc2)cc(=O)n2cc(-c3ccc(Cl)cc3)nc12 [Compound 437] | 10 to 100 |
| CCCCCn1c(N2CCC[C@H]2C(=O)N[C@H]2CNC(=O)C2)cc(=O)n2cc(-c3ccc(Cl)cc3)nc12 [Compound 712] | 100 to 1000 |
| CCCCCn1c(N2CCNC(C(=O)NCCC(=O)O)C2)cc(=O)n2cc(-c3ccc(Cl)cc3)nc12 (centres unmarked) [Compound 662] | 10 to 100 |
| CCCCCn1c(-c2ccc(C(=O)NC[C@H](O)CO)cc2)cc(=O)n2cc(-c3ccc(Cl)cc3)nc12 [Compound 486] | < 10 |
| CCCCCn1c(N2C[C@H](F)C[C@H]2C(=O)O)cc(=O)n2cc(-c3ccc(Cl)cc3)nc12 [Compound 587] | > 1000 |
| CCCCCn1c(N2CCC[C@H]2C(=O)N[C@H](Cc2ccccc2)C(=O)O)cc(=O)n2cc(-c3ccc(Cl)cc3)nc12 [Compound 725] | 10 to 100 |
| CCCCCn1c(O[C@H]2C[C@H](NC(=O)OC(C)(C)C)C2)cc(=O)n2cc(-c3ccc(Cl)cc3)nc12 [Compound 552] | 100 to 1000 |
| CCCCCn1c(N2CCC[C@H]2C(=O)N2CCNC(=O)CC2)cc(=O)n2cc(-c3ccc(Cl)cc3)nc12 [Compound 698] | 10 to 100 |
| CCCCCn1c(N2CCCC[C@@H]2C(=O)NCC(=O)O)cc(=O)n2cc(-c3ccc(Cl)cc3)nc12 [Compound 638] | 100 to 1000 |
| CCCCCn1c(-c2ccc(C(=O)NCc3ccc([N+](=O)[O-])cc3)cc2)cc(=O)n2cc(-c3ccc(Cl)cc3)nc12 [Compound 518] | 100 to 1000 |
| CCCCCn1c(N2CCC[C@H]2C(=O)N[C@@H](Cc2ccccc2)C(=O)O)cc(=O)n2cc(-c3ccc(Cl)cc3)nc12 [Compound 740] | < 10 |
| CCCCCn1c(N2CCC[C@H]2C(=O)NC(C)C(=O)OC)cc(=O)n2cc(-c3ccc(Cl)cc3)nc12 (some centres unmarked) [Compound 685] | < 10 |
| CCCCCn1c(N2C[C@H](O)C[C@H]2C(=O)NCCC(=O)O)cc(=O)n2cc(-c3ccc(Cl)cc3)nc12 [Compound 581] | < 10 |
| CCCCCn1c(-c2ccc(C(=O)NC(CO)CO)cc2)cc(=O)n2cc(-c3ccc(Cl)cc3)nc12 [Compound 482] | < 10 |
| CCCCCn1c(-c2ccc(C(=O)NCCc3ccccn3)cc2)cc(=O)n2cc(-c3ccc(Cl)cc3)nc12 [Compound 508] | 10 to 100 |
| CCCCCn1c(-c2ccc(C(=O)NCCN3CC4(COC4)C3)cc2)cc(=O)n2cc(-c3ccc(Cl)cc3)nc12 [Compound 365] | 10 to 100 |

Same assay, conditions: Assay Method C, human autotaxin, 18:0 Lyso PC substrate; read-out: Inhibitory Activity

| SMILES | IC50 [nM] |
| --- | --- |
| N#CCNC(=O)Cc1cn(CCCC(F)(F)F)c2nc(-c3ccc(Cl)cc3)cn2c1=O [Compound 829] | 100 to 1000 |
| C#CCNC(=O)C1CCCCN1c1cc(=O)n2cc(-c3ccc(Cl)cc3)nc2n1CCCCC (centres unmarked) [Compound 807] | 10 to 100 |
| CCCCCn1c(N2CCC[C@H]2C(=O)NCc2nn[nH]n2)cc(=O)n2cc(-c3ccc(Cl)cc3)nc12 [Compound 795] | < 10 |
| N#CNC(=O)Cc1cn(CCCC(F)(F)F)c2nc(-c3ccc(Cl)cc3)cn2c1=O [Compound 835] | > 1000 |
| CC(C)(C)OC(=O)NCCNC(=O)Cc1cn(CCCC(F)(F)F)c2nc(-c3ccc(Cl)cc3)cn2c1=O [Compound 840] | 100 to 1000 |
| CC(=O)CNC(=O)Cc1cn(CCCC(F)(F)F)c2nc(-c3ccc(Cl)cc3)cn2c1=O [Compound 856] | > 1000 |
| O=C(Cc1cn(CCCC(F)(F)F)c2nc(-c3ccc(Cl)cc3)cn2c1=O)NCc1nn[nH]n1 [Compound 858] | 10 to 100 |
| CNC(=O)Cc1cn(CCCC(F)(F)F)c2nc(-c3ccc(Cl)cc3)cn2c1=O [Compound 851] | 100 to 1000 |
| O=C(O)c1cccc(Cc2cn(CC3CC3)c3nc(-c4ccc(Cl)cc4)cn3c2=O)c1 [Compound 823] | 10 to 100 |
| O=C(Cc1cn(CCCC(F)(F)F)c2nc(-c3ccc(Cl)cc3)cn2c1=O)NCCO [Compound 843] | > 1000 |
| CC1CCCCN1C(=O)Cc1cn(CCCC(F)(F)F)c2nc(-c3ccc(Cl)cc3)cn2c1=O (centres unmarked) [Compound 836] | 10 to 100 |

Same assay, conditions: Assay Method: Method C (Test Example 3); read-out: Inhibitory Activity (Enzyme Inhibitory Activity, IC50)

| SMILES | IC50 [nM] |
| --- | --- |
| CCCC(=O)Cn1c(C)cc(=O)n2cc(-c3ccc(Cl)cc3)nc12 [Compound 41] | 100 to 1000 |
| Cc1cc(=O)n2cc(-c3ccc(Cl)cc3)nc2n1CCCC(C)F (centres unmarked) [Compound 49] | 100 to 1000 |
